Data as given in patent publication US7781594B2, “5-(4-methanesulfonyl-phenyl)-thiazole derivatives for the treatment of acute and chronic inflammatory diseases” (Faes Farma, S.A., priority 2008, dated 2010).
Entries after “also recorded” stand apart in the source; their conditions may differ.

Legend:
Format in all cases: cell-based, human
IL-8 [1] = assay: IL-8 production by PBMC from healthy volunteers, CBA
Procedure: (§1) CBA protocol was followed according to the manufacturer's instructions. The election of microparticles was performed following the summary of FIG. 1.
(§2) The acquisition on samples was performed with the BD FACS Array Bioanalyser System (FACSArray, Becton Dickinson, San José, Calif., USA) and the analysis of the results was completed with the software FCAP Array (Becton Dickinson) in a PC computer.
(§3) Briefly, the experimental protocol consisted of a plate pre-washing out with Wash Buffer. After decantation, the mixture of capture microparticles was re-suspended in the vortex. Standards and samples were added in the adequate dilution. After permanent stirring incubation during 1 h, the PE detection reagent was added and incubated again during 2 h at room temperature. After a washing-out, the acquisition was performed in the flow cytometer.
The effect of compound 12 on the IL-8 production by the PBMC from healthy volunteers was further investigated, both in the presence and absence of LPS stimuli and monoclonal antibodies anti-CD3 and anti-CD28. PBMC (5×10^4 cells/well) from 13 healthy volunteers were cultured in duplicate in 200 μl of complete medium supplemented with the highest solvent concentration (10^−6 M), and 10^−6 M, 10^−7 M and 10^−8 M of compound 12, in the presence and absence of either LPS (10 μg/ml) or anti-CD3 (12.5 ng/ml)+anti-CD28 (⅓×10^5), during 24 hours. Culture supernatants were frozen at −20° C. and IL-8 concentration was quantified by BD FACS Array Bioanalyser by using CBA Flex Set, specific to determine the IL-8 concentration, following the manufacturer instructions.

IFN-gamma = IFN-gamma production by PBMC from healthy volunteers, CBA
Procedure: as §1, §2
as §3, with “After a washing-out, the acquisition was performed in the flow cytometer.” left out
PBMC (5×10^4 cells per well) from 13 healthy volunteers were cultured in duplicate in 200 μl of complete medium supplemented with the highest solvent concentration (10^−6 M), and 10^−6 M, 10^−7 M and 10^−8 M of compound 12 in the presence or absence, either of LPS (10 μg/ml), or anti-CD3 (12.5 ng/ml)+anti-CD28 (⅓×10^5), during 24 hours. Culture supernatants were frozen at −20° C. and the concentration of IFN-gamma was quantified by BD FACS Array Bioanalyser by using CBA Flex Set (Becton Dickinson), specific to determine the concentration of IFN-gamma, following the manufacturer instructions.

CD62L in monocytes = assay: Shedding of CD62L in monocytes of PBMC, flow cytometry; conditions: healthy volunteers; FIG. 12b
Procedure: Direct immuno-fluorescence techniques of one colour with monoclonal antibodies phycoerythrin-labeled (PE) was used. PE is a fluorescent substance excitable with a 488 nm laser, which emits at 570 nm, and it is detectable and easily distinguishable by a flow cytometer. By using the antibody described in Table 1, a direct labelling was performed:
PBMC labelling: the process consisted in a labelling using 96 well V bottom plates. In each well, 5×10^4 cells are located, and afterwards centrifugated at 400×g during 5 minutes. After washing-out, cells are re-suspended and 5 μl of the corresponding monoclonal antibody are added. Cells are again re-suspended and the plate is incubated in darkness, during 20 minutes, at 4° C. Subsequently, 150 μl PBS are added and two wash-outs are performed. Finally, it is re-suspended in 150 μl PBS and collected in a cytometer tube, adding PBS up to a final volume of 0.3 ml.
For the counting, a FACSCalibur flow cytometer equipped with argon laser tuned at 488 nm was used in order to induce phycoerythrin fluorescence. The equipment, apart from the fluorescence channels, also provided information about the size (FSC) and cellular complexity (SSC).
As negative controls, the study cells with no labelling and other irrelevant labelled with monoclonal antibodies of equal isotypes than the ones used in the study (IgG1-FITC, PE y TC, IgG2a FITC, PE, TC), were used. […]

IL-8 [2] = assay: IL-8 production by PBMC from patients with rheumatoid arthritis, CBA
Procedure: as §1, §2, §3
The effect on IL-8 production by PBMC from patients with rheumatoid arthritis was also studied. […] Culture supernatants were frozen at −20° C. and IL-8 concentration was quantified by BD FACS Array Bioanalyser by using CBA Flex Set, specific to determine IL-8 concentration, following the manufacturer instructions.

IL-10 [3] = assay: IL-10 production by PBMC from patients with rheumatoid arthritis, CBA
Procedure: as §1, §2, §3
On the other hand, PBMC (5×10^4 cells per well) from 8 patients with rheumatoid arthritis were cultured in duplicate in 200 μl of complete medium supplemented with the highest solvent concentration (10^−6 M), and 10^−6 M, 10^−7 M and 10^−8 M of compound 12 in the presence and absence of either LPS (10 μg/ml) or anti-CD3 (12.5 ng/ml), +anti-CD28 (⅓×10^5), during 24 hours. […]

IL-10 [4] = assay: IL-10 production by PBMC from healthy volunteers, CBA; conditions: FIG. 9
Procedure: as §1, §2, §3
The effects of compound 12 on IL-10 production by the PBMC from healthy volunteers and patients with rheumatoid arthritis were investigated in the presence and absence of LPS stimulation and with the combination of monoclonal antibodies anti-CD3 and anti-CD28. […]

Cc1nc(OC2CCCC2)c(-c2ccc(S(C)(=O)=O)cc2)s1 [Compound 12, 4-cyclopentyloxy-5-(4-methylsulfonyl-phenyl)-2-methyl-thiazole]
Effect on IL-8 production under LPS stimulation of PBMC (IL-8 [1]): no effects were observed | Effect on spontaneous production of IL-8 by PBMC (IL-8 [1]; 10^−6 M and 10^−7 M, p<0.05, FIG. 7): significantly inhibited | Effect on IL-8 production induced by anti-CD3 and anti-CD28 (IL-8 [1]; 10^−8 M): significant inhibition | Effect on IFN-gamma production by PBMC, LPS-stimulated or anti-CD3 and anti-CD28 stimulated (IFN-gamma; 10^−6 M, p<0.05, FIG. 5): significantly inhibited | Effect on spontaneous secretion of IFN-gamma by PBMC (IFN-gamma; no stimulus): not modified | Effect on CD62L shedding in monocytes (CD62L in monocytes): significant differences were not observed | Effect on IL-8 production by PBMC, spontaneous or anti-CD3 and anti-CD28 induced (IL-8 [2]): neither modified the spontaneous IL-8 production nor that induced by the combination of monoclonal antibodies anti-CD3 and anti-CD28 | Effect on LPS-induced production of IL-8 in PBMC (IL-8 [2]; 10^−6 M and 10^−8 M, FIG. 8): significantly inhibited | Effect on IL-10 production by PBMC, spontaneous or anti-CD3 and anti-CD28 stimulated (IL-10 [3]): no significant effects | Effect on IL-10 production after stimulation with LPS (IL-10 [3]; 10^−8, p<0.05, FIG. 10): significantly inhibited | Effect on IL-10 production by PBMC in the presence and absence of LPS or anti-CD3 + anti-CD28 (IL-10 [4]): no effects; also recorded: No statistical differences were found
